Experimental data taken from patent publication US10053452B2 (AMGEN INC., priority 2013, dated 2018).

Key:
[1] = tested on: solid ovarian cancerous tumor; experiment: Human Ph I clinical trial, tumor response: ovarian tumor
Method: Specifically, FIG. 32A illustrates diametric measurements along the short axis of the tumor dosed with 30 mg once daily over a period of two (2) cycles, ie., 4 week (28 days).

[2] = Relationship / interconversion between bismesylate crystalline forms; format: physicochemical
From the text: AMG 900 bismesylate salt crystalline From A was identified as a dihydrate; AMG 900 bismesylate salt crystalline From B was identified as a dihydrate; AMG 900 bismesylate salt crystalline From C was identified as a monohydrate; and AMG 900 bismesylate salt crystalline From D was identified as a monohydrate. […].

[3] = Solid photostability (1×ICH dose for UV and visible light); format: physicochemical; settings: 1×ICH dose for UV and visible light
Method: For photostability studies, enough sample was placed in a open 100 mL glass crystallization dish and exposed to 1×ICH dose for UV and visible light. Samples were weighed out for HPLC, XRPD, TGA and DSC analysis as abve after the exposure to light.

[4] = Solid stability studies (storage at set temperature/humidity; HPLC, XRPD, TGA, DSC); format: physicochemical; settings: for Total Impurities (%): acceptance < or = 2.0; for Assay (% w/w): acceptance 97.0-103.0; for Description: acceptance: White to brown powder
[5] = tested on: stage IV solid endometrial cancerous tumor; experiment: Human Ph I clinical trial, tumor response: endometrial tumor; settings: endometrial tumor patient; 30 mg+GCSF once daily, 4 days on/10 days off; week 24; CT, RECIST 1.0
From the text: FIGS. 31A and 31B are measurements of the same endometrial solid tumor depicted in FIGS. 30A and 30B, but with its size shown as measured alone the short axis by CT and calculated using RECIST 1.1.

[6] = Dynamic vapor sorption (DVS) moisture uptake; format: physicochemical
Method: Moisture uptake of a given AMG 900 salt crystalline form was assessed by dynamic vapor sorption (DVS). Moisture sorption/desorption data was collected on a Surface Measurement System (SMS) DVS-Advantage vapor sorption analyzer (SMS, Alperton, Middlesex, UK). The sorption and desorption data was collected over a range of 0 to 95% relative humidity (RH) at 25° C. with 5-10% RH intervals under a nitrogen purge. Equilibrium criteria used for analysis were less than 0.002% weight change in 5 minutes, with a maximum equilibrium time of 120 minutes if the weight criterion was not met.

solid tumor = experiment: Human Ph I clinical trial: active dose and MTD/DLT; settings: oral
Dog pK study = format: in vivo; settings: dog
From the text: To this end, a various crystalline forms of different pharmaceutically acceptable salts of AMG 900 were investigated and made.

[7] = Solubility studies in aqueous media, excipients or solvents (18-24 hrs, HPLC; solid form by XRPD); format: physicochemical; settings: for solubility at 24 h: thermodynamic from solid
Method: An excess of solid material was stirred at 25° C. or 55° C. for 18-24 hrs in aqueous media, excipients or solvents as noted. At the appropriate time point, an aliquot of the sample was centrifuged. The supernatant was filtered through a PTFE syringe filter and analyzed by HPLC versus a standard curve. The solid was then analyzed by XRPD for identification of the form.

[8] = Solid stability studies (storage at set temperature/humidity; HPLC, XRPD, TGA, DSC); format: physicochemical; settings: for Assay (% w/w): acceptance 97.0-103.0; for physical and chemical stability of unmilled drug substance: up to 3 months, 30° C./65% RH and 40° C./75% RH
Method: Stability data was obtained for up to 3 months storage at the long term storage condition of 30° C./65% RH and at the accelerated condition of 40° C./75% RH for unmilled drug substance.
Another 10 mg was weighed into a 4 mL glass vial and placed under the same conditions. At each time point one flask was removed from the chamber or over, diluted with methanol to the 100 mL mark and analyzed by HPLC for purity and label claim % compared to the standard. Also at each time point one vial was removed from the chamber and the contents were analyzed by XRPD, TGA and/or DSC.

[9] = platinum-sensitive ovarian cancer patient, 16 mg, then 8 mg (cycles 4-15), 12 mg (cycle 16) once daily, end of cycle 16
[10] = 30° C./65% RH, Initial Period Time 0
[11] = up to 12 weeks, 25° C./60% RH, 40° C./60% RH, 40° C./75% RH and 60° C./Amb

Cc1csc(-c2nnc(Nc3ccc(Oc4ncccc4-c4ccnc(N)n4)cc3)c3ccccc23)c1 [AMG 900 bismesylate dihydrate form B, N-(4-((3-(2-amino-4-pyrimidinyl)-2-pyridinyl)oxy)phenyl)-4-(4-methyl-2-thienyl)-1-phthalazinamine]
decrease in CA-125 [1, 9]: 45% | decrease in SLD (sum of long axis diameters) on CT [1, 9]: 16% | reduction of short axis diameter versus base line ([1]; stage IV-B ovarian tumor patient, 30 mg once daily, 4 days on/10 days off, two cycles, week 4, RECIST 1.1): about 30% | thermodynamic stability of the crystalline form [2]: thermodynamically stable form | chemical and physical stability to light [3]: chemically and physically stable | Water content (%) ([4]; 30° C./65% RH, 3 months): 5.1% | Total Impurities (%) ([4]; 30° C./65% RH, 3 months): 0.21% | 4-aminophenol content (ppm) ([4]; 30° C./65% RH, 3 months, acceptance < or = 500): <20 ppm | Water content (%) ([4]; 30° C./65% RH, 6 months): 5.2% | Assay (% w/w) ([4]; 30° C./65% RH, 6 months): 99.1 % w/w | Total Impurities (%) ([4]; 30° C./65% RH, 6 months): 0.16% | 4-aminophenol content (ppm) ([4]; 30° C./65% RH, 6 months, acceptance < or = 500): <20 ppm | Description ([4]; 30° C./65% RH, 6 months): conforms | Water content (%) ([4]; 30° C./65% RH, 9 months): 5.2% | Assay (% w/w) ([4]; 30° C./65% RH, 9 months): 101.2 % w/w | Total Impurities (%) ([4]; 30° C./65% RH, 9 months): 0.25% | 4-aminophenol content (ppm) ([4]; 30° C./65% RH, 9 months, acceptance < or = 500): <20 ppm | Description ([4]; 30° C./65% RH, 9 months): conforms | Water content (%) ([4]; 30° C./65% RH, 12 months): 5.2% | Assay (% w/w) ([4]; 30° C./65% RH, 12 months): 100.1 % w/w | Total Impurities (%) ([4]; 30° C./65% RH, 12 months): 0.26% | 4-aminophenol content (ppm) ([4]; 30° C./65% RH, 12 months, acceptance < or = 500): <20 ppm | Intermediate* content (ppm) ([4]; 30° C./65% RH, 12 months, acceptance < or = 500, intermediate is 4-(2-(4-aminophenoxy)pyridin-3-yl)pyrimidin-2-amine): 171 ppm | Description ([4]; 30° C./65% RH, 12 months): conforms | Water content (%) [4, 10]: 5.0% | Description [4, 10]: conforms | chemical stability (HPLC) [4, 11]: no degradation detected | physical stability (XRPD, TGA and DSC) [4, 11]: physically stable | decrease of long axis diameter versus base line [5]: approximately 50% | hygroscopicity [6]: non-hygroscopic | stability to humidity changes (DVS isotherm) ([6]; above 10% RH): stable to humidity changes | dose at which MTD's and DLT's were observed (solid tumor): greater than 8 mg | once daily dose at which anti cancer activity was observed (solid tumor; on-off schedule, ovarian and endometrial tumors): ≥ 8 mg | exposure in a dog pK study (Dog pK study): acceptable | form stability after slurry in various aqueous media and solvents ([7]; 24 hrs, all media except aqueous pH 7 and pH 12): remain unchanged (stable) | solubility at 24 h ([7]; DMF, organic solvent or mixture): > 12 mg/mL | solubility at 24 h ([7]; THF, organic solvent or mixture): 0.012 mg/mL | solubility at 24 h ([7]; acetone, organic solvent or mixture): 0.02 mg/mL | solubility at 24 h ([7]; aqueous MSA, aqueous buffer, pH 0.5 MSA): 0.676 mg/mL | solubility at 24 h ([7]; aqueous MSA, aqueous buffer, pH 1.0 MSA): > 7.4 mg/mL | solubility at 24 h ([7]; aqueous MSA, aqueous buffer, pH 1.5 MSA): 3.4 mg/mL | solubility at 24 h ([7]; aqueous MSA, aqueous buffer, pH 2.0 MSA): 1.62 mg/mL | form after slurry ([7]; aqueous pH 7, 24 hrs): converted to the free base form C hydrate | form after slurry ([7]; aqueous pH 12, 24 hrs): converted to the free base form C hydrate | solubility at 24 h ([7]; ethanol, organic solvent or mixture): > 12 mg/mL | solubility at 24 h ([7]; ethyl acetate, organic solvent or mixture): < 0.001 mg/mL | solubility at 24 h ([7]; isopropyl alcohol, organic solvent or mixture): > 0.001 mg/mL | solubility at 24 h ([7]; methanol, organic solvent or mixture): > 12 mg/mL | solubility at 24 h ([7]; methanol/water (9:1), organic solvent or mixture): > 12 mg/mL | solubility at 24 h ([7]; methyl ethyl ketone, organic solvent or mixture, Methyl ethyl keone): < 0.001 mg/mL | solubility at 24 h ([7]; organic solvent or mixture, Acetonitrile (ACN)): 0.383 mg/mL | solubility at 24 h ([7]; organic solvent or mixture, Dichloroethane (DCE)): 0.008 mg/mL | solubility at 24 h ([7]; phosphate buffer, aqueous buffer, pH 7.0 Phosphate): < 0.001 mg/mL | solubility at 24 h ([7]; phosphate buffer, aqueous buffer, pH 12.0 Phosphate): < 0.001 mg/mL | Assay (% w/w) ([8]; 30° C./65% RH, 3 months): 99.2 % w/w | Description ([8]; 30° C./65% RH, 3 months, acceptance: White to brown powder): conforms | Assay (% w/w) [8, 10]: 98.1 % w/w | Total Impurities (%) ([8]; 30° C./65% RH, Initial Period Time 0, acceptance < or = 2.0): 0.35% | 4-aminophenol content (ppm) ([8]; 30° C./65% RH, Initial Period Time 0, acceptance < or = 500): <20 ppm | physical and chemical stability of unmilled drug substance ([8]; listed as AMG 900 bis-mesylate dihydrate drug substance): remain within specifications | physical and chemical stability of unmilled drug substance ([8]; listed as AMG 900 bismesylate (dimethanesulfonate) salt crystalline Form B): stable
